Data as given in publication PMC9296036, “A peptide interfering with the dimerization of oncogenic KITENIN protein and its stability suppresses colorectal tumour progression” (Clinical and Translational Medicine, 2022).
Ends that are not written are not given here.

System: CT-26/KITENIN-V5 tumours
Experiment: Syngeneic subcutaneous tumour model, CT-26/KITENIN-V5 cells in BALB/c mice
Format: in vivo, mouse
Conditions: CT-26/KITENIN-V5, KDIP 1 and 5 mg/kg intravenously every other day for 2 weeks, dose dependent
Description: The CT‐26 cell/syngeneic mouse model was used to investigate the in vivo effects of KDIP on colorectal tumourigenesis, as it is reported that a syngeneic mouse tumour model is good for testing the anticancer effects of candidate substances.[25], [26] Male Balb/c mice (5‐week old) were purchased from DaMul Science, Korea and acclimated for 1 week prior to subcutaneous injection of syngeneic CT‐26/EV (3 × 10^6) or CT‐26/KITENIN cells (1 × 10^6) into the dorsum. Tumour volume was calculated using the following equation: V = 1/2 × a × b […], where a and b are the longest and shortest diameters of the tumour (in millimetres), respectively. Tumour volume was measured every other day for 14 days to verify the effects of KDIP. […]
Effect of KAI1 C‐terminal interacting tetraspanin (KITENIN) dimerization‐interfering peptide (KDIP) on tumour growth and metastasis in in vivo mouse model of colorectal cancer (CRC). […] For the evaluation of metastasis, total fluorescence emitted from liver nodules expressing iRFP was measured and counted (left panel) or metastatic tumour growth was counted as nodules that migrated to the surface of the liver, and a metastatic score was obtained by multiplying it with size (middle panel). Metastatic score or total fluorescence is represented as mean ± SEM. […]

YARVRRRGPRRWRLVSDEAV [KDIP]
tumour volume (in words): significantly reduced
